Source: patent publication US20220370406A1, “METHOD OF TREATING STIMULANT USE DISORDER USING A COMBINATION OF TOPIRAMATE AND PHENTERMINE” (University of Kentucky Research Foundation, priority 2019, published 2022)

Tested on: participants with cocaine use disorder
Assay: Medical safety session: subjective effects questionnaires after intranasal cocaine
Assay type: in vivo, human
Experimental: Participants completed one, single-blind medical safety session to ensure they could tolerate intranasal cocaine. Intranasal cocaine doses (i.e., 0 [placebo], 10, 20, 40 and 80 mg) were administered in ascending order. Placebo (i.e., 0 mg) was administered at 0900 hours. The subjective-effect questionnaires and cardiovascular measures described below were completed 30 minutes before placebo administration (i.e., 0830 hours), immediately following and at 15-minute intervals for 45 minutes. Subsequent cocaine administrations were separated by 45 minutes.

[1] = Cocaine 40 mg, Topiramate (0 mg/day) group
[2] = Cocaine 40 mg, Topiramate (50 mg/day) group
[3] = Cocaine 40 mg, Topiramate (100 mg/day) group
[4] = Cocaine 80 mg, Topiramate (0 mg/day) group
[5] = Cocaine 80 mg, Topiramate (50 mg/day) group
[6] = Cocaine 80 mg, Topiramate (100 mg/day) group

In the case of COC(=O)[C@H]1[C@@H](OC(=O)c2ccccc2)C[C@@H]2CC[C@H]1N2C [Cocaine, cocaine], the “Adjective Rating Scales Sedative, mean peak effect” value (from here on “Adjective Rating Scales Sedative”) [1] is reported as 3.2, the “Adjective Rating Scales Stimulant, mean peak effect” value (“Adjective Rating Scales Stimulant” below) [1] is reported as 0.0 and the “Drug-Effect Questionnaire Active-Alert-Energetic, mean peak effect” value [1] is reported as 26.0. For the same molecule, the “Drug-Effect Questionnaire Any Effect, mean peak effect” value (“Drug-Effect Questionnaire Any Effect” below) [1] was 33.3, the “Drug-Effect Questionnaire Bad Effects, mean peak effect” value (shortened to “Drug-Effect Questionnaire Bad Effects”) [1] was 9.0 and the “Drug-Effect Questionnaire Euphoric, mean peak effect” value (from here on “Drug-Effect Questionnaire Euphoric”) [1] was 10.6. The “Drug-Effect Questionnaire Good Effects, mean peak effect” value (from here on “Drug-Effect Questionnaire Good Effects”) [1] was 33.9, the “Drug-Effect Questionnaire High, mean peak effect” value (from here on “Drug-Effect Questionnaire High”) [1] was 29.5 and the “Drug-Effect Questionnaire Irregular Heart Beat, mean peak effect” value [1] was 7.4. The “Drug-Effect Questionnaire Like Drug, mean peak effect” value (from here on “Drug-Effect Questionnaire Like Drug”) [1] was 36.1, the “Drug-Effect Questionnaire Nausea-Queasy-Sick, mean peak effect” value [1] was 3.2 and the “Drug-Effect Questionnaire Nervous-Anxious, mean peak effect” value [1] was 10.1. For the same molecule, the “Drug-Effect Questionnaire Performance Impaired, mean peak effect” value [1] was 10.7, the “Drug-Effect Questionnaire Performance Improved, mean peak effect” value [1] was 10.7 and the “Drug-Effect Questionnaire Restless, mean peak effect” value (shortened to “Drug-Effect Questionnaire Restless”) [1] was 10.4. The “Drug-Effect Questionnaire Rush, mean peak effect” value (shortened to “Drug-Effect Questionnaire Rush”) [1] was 28.1, the “Drug-Effect Questionnaire Shaky-Jittery, mean peak effect” value (shortened to “Drug-Effect Questionnaire Shaky-Jittery”) [1] was 9.7 and the “Drug-Effect Questionnaire Sluggish-Fatigued-Lazy, mean peak effect” value [1] was 9.0. For the same molecule, the “Drug-Effect Questionnaire Stimulated, mean peak effect” value (“Drug-Effect Questionnaire Stimulated” below) [1] was 21.1, the “Drug-Effect Questionnaire Talkative-Friendly, mean peak effect” value [1] was 16.7 and the “Drug-Effect Questionnaire Willing to Pay For, mean peak effect” value [1] was 32.8. The “Drug-Effect Questionnaire Willing to Take Again, mean peak effect” value [1] was 40.6, the “Adjective Rating Scales Sedative” value [2] was 2.1 and the “Adjective Rating Scales Stimulant” value [2] was 10.1. For the same molecule, the “Drug-Effect Questionnaire Active-Alert-Energetic, mean peak effect” value [2] was 24.7, the “Drug-Effect Questionnaire Any Effect” value [2] was 19.3 and the “Drug-Effect Questionnaire Bad Effects” value [2] was 7.2. The “Drug-Effect Questionnaire Euphoric” value [2] was 6.2, the “Drug-Effect Questionnaire Good Effects” value [2] was 17.0 and the “Drug-Effect Questionnaire High” value [2] was 29.9. For the same molecule, the “Drug-Effect Questionnaire Irregular Heart Beat, mean peak effect” value [2] was 6.0, the “Drug-Effect Questionnaire Like Drug” value [2] was 16.7 and the “Drug-Effect Questionnaire Nausea-Queasy-Sick, mean peak effect” value [2] was 9.8. The “Drug-Effect Questionnaire Nervous-Anxious, mean peak effect” value [2] was 1.8, the “Drug-Effect Questionnaire Performance Impaired, mean peak effect” value [2] was 1.9 and the “Drug-Effect Questionnaire Performance Improved, mean peak effect” value [2] was 10.6. For the same molecule, the “Drug-Effect Questionnaire Restless” value [2] was 2.9, the “Drug-Effect Questionnaire Rush” value [2] was 30.0 and the “Drug-Effect Questionnaire Shaky-Jittery” value [2] was 2.8. The “Drug-Effect Questionnaire Sluggish-Fatigued-Lazy, mean peak effect” value [2] was 0.1, the “Drug-Effect Questionnaire Stimulated” value [2] was 22.3 and the “Drug-Effect Questionnaire Talkative-Friendly, mean peak effect” value [2] was 13.6. For the same molecule, the “Drug-Effect Questionnaire Willing to Pay For, mean peak effect” value [2] was 17.0, the “Drug-Effect Questionnaire Willing to Take Again, mean peak effect” value [2] was 17.4 and the “Adjective Rating Scales Sedative” value [3] was 5.1. The “Adjective Rating Scales Stimulant” value [3] was 11.8, the “Drug-Effect Questionnaire Active-Alert-Energetic, mean peak effect” value [3] was 13.8 and the “Drug-Effect Questionnaire Any Effect” value [3] was 22.1. The “Drug-Effect Questionnaire Bad Effects” value [3] was 3.0, the “Drug-Effect Questionnaire Euphoric” value [3] was 6.7 and the “Drug-Effect Questionnaire Good Effects” value [3] was 24.0. The “Drug-Effect Questionnaire High” value [3] was 23.6, the “Drug-Effect Questionnaire Irregular Heart Beat, mean peak effect” value [3] was 9.0 and the “Drug-Effect Questionnaire Like Drug” value [3] was 20.8. For the same molecule, the “Drug-Effect Questionnaire Nausea-Queasy-Sick, mean peak effect” value [3] was 16.2, the “Drug-Effect Questionnaire Nervous-Anxious, mean peak effect” value [3] was 8.1 and the “Drug-Effect Questionnaire Performance Impaired, mean peak effect” value [3] was 4.1. The “Drug-Effect Questionnaire Performance Improved, mean peak effect” value [3] was 5.0, the “Drug-Effect Questionnaire Restless” value [3] was 9.1 and the “Drug-Effect Questionnaire Rush” value [3] was 20.1. The “Drug-Effect Questionnaire Shaky-Jittery” value [3] was 8.7, the “Drug-Effect Questionnaire Sluggish-Fatigued-Lazy, mean peak effect” value [3] was 9.1 and the “Drug-Effect Questionnaire Stimulated” value [3] was 16.5. For the same molecule, the “Drug-Effect Questionnaire Talkative-Friendly, mean peak effect” value [3] was 13.2, the “Drug-Effect Questionnaire Willing to Pay For, mean peak effect” value [3] was 15.0 and the “Drug-Effect Questionnaire Willing to Take Again, mean peak effect” value [3] was 16.4. The “Adjective Rating Scales Sedative” value [4] was 4.1, the “Adjective Rating Scales Stimulant” value [4] was 8.5 and the “Drug-Effect Questionnaire Active-Alert-Energetic, mean peak effect” value [4] was 25.6. For the same molecule, the “Drug-Effect Questionnaire Any Effect” value [4] was 39.1, the “Drug-Effect Questionnaire Bad Effects” value [4] was 8.2 and the “Drug-Effect Questionnaire Euphoric” value [4] was 10.5. For the same molecule, the “Drug-Effect Questionnaire Good Effects” value [4] was 33.3, the “Drug-Effect Questionnaire High” value [4] was 27.7 and the “Drug-Effect Questionnaire Irregular Heart Beat, mean peak effect” value [4] was 14.4. For the same molecule, the “Drug-Effect Questionnaire Like Drug” value [4] was 34.6, the “Drug-Effect Questionnaire Nausea-Queasy-Sick, mean peak effect” value [4] was 8.8 and the “Drug-Effect Questionnaire Nervous-Anxious, mean peak effect” value [4] was 12.1. The “Drug-Effect Questionnaire Performance Impaired, mean peak effect” value [4] was 10.5, the “Drug-Effect Questionnaire Performance Improved, mean peak effect” value [4] was 11.5 and the “Drug-Effect Questionnaire Restless” value [4] was 10.1. For the same molecule, the “Drug-Effect Questionnaire Rush” value [4] was 27.3, the “Drug-Effect Questionnaire Shaky-Jittery” value [4] was 13.8 and the “Drug-Effect Questionnaire Sluggish-Fatigued-Lazy, mean peak effect” value [4] was 5.7. The “Drug-Effect Questionnaire Stimulated” value [4] was 21.1, the “Drug-Effect Questionnaire Talkative-Friendly, mean peak effect” value [4] was 17.9 and the “Drug-Effect Questionnaire Willing to Pay For, mean peak effect” value [4] was 30.5. The “Drug-Effect Questionnaire Willing to Take Again, mean peak effect” value [4] was 38.4, the “Adjective Rating Scales Sedative” value [5] was 2.4 and the “Adjective Rating Scales Stimulant” value [5] was 13.2. For the same molecule, the “Drug-Effect Questionnaire Active-Alert-Energetic, mean peak effect” value [5] was 31.4, the “Drug-Effect Questionnaire Any Effect” value [5] was 29.6 and the “Drug-Effect Questionnaire Bad Effects” value [5] was 10.4. The “Drug-Effect Questionnaire Euphoric” value [5] was 14.7, the “Drug-Effect Questionnaire Good Effects” value [5] was 24.0 and the “Drug-Effect Questionnaire High” value [5] was 31.8. For the same molecule, the “Drug-Effect Questionnaire Irregular Heart Beat, mean peak effect” value [5] was 0.8, the “Drug-Effect Questionnaire Like Drug” value [5] was 28.4 and the “Drug-Effect Questionnaire Nausea-Queasy-Sick, mean peak effect” value [5] was 1.2. For the same molecule, the “Drug-Effect Questionnaire Nervous-Anxious, mean peak effect” value [5] was 2.2, the “Drug-Effect Questionnaire Performance Impaired, mean peak effect” value [5] was 1.9 and the “Drug-Effect Questionnaire Performance Improved, mean peak effect” value [5] was 11.2. For the same molecule, the “Drug-Effect Questionnaire Restless” value [5] was 7.8, the “Drug-Effect Questionnaire Rush” value [5] was 28.4 and the “Drug-Effect Questionnaire Shaky-Jittery” value [5] was 4.8. For the same molecule, the “Drug-Effect Questionnaire Sluggish-Fatigued-Lazy, mean peak effect” value [5] was 0.0, the “Drug-Effect Questionnaire Stimulated” value [5] was 31.8 and the “Drug-Effect Questionnaire Talkative-Friendly, mean peak effect” value [5] was 14.3. The “Drug-Effect Questionnaire Willing to Pay For, mean peak effect” value [5] was 30.6, the “Drug-Effect Questionnaire Willing to Take Again, mean peak effect” value [5] was 30.3 and the “Adjective Rating Scales Sedative” value [6] was 7.8. For the same molecule, the “Adjective Rating Scales Stimulant” value [6] was 15.7, the “Drug-Effect Questionnaire Active-Alert-Energetic, mean peak effect” value [6] was 24.5 and the “Drug-Effect Questionnaire Any Effect” value [6] was 39.5. The “Drug-Effect Questionnaire Bad Effects” value [6] was 12.2, the “Drug-Effect Questionnaire Euphoric” value [6] was 16.2 and the “Drug-Effect Questionnaire Good Effects” value [6] was 27.9. The “Drug-Effect Questionnaire High” value [6] was 42.0, the “Drug-Effect Questionnaire Irregular Heart Beat, mean peak effect” value [6] was 24.1 and the “Drug-Effect Questionnaire Like Drug” value [6] was 32.4. For the same molecule, the “Drug-Effect Questionnaire Nausea-Queasy-Sick, mean peak effect” value [6] was 20.5, the “Drug-Effect Questionnaire Nervous-Anxious, mean peak effect” value [6] was 22.9 and the “Drug-Effect Questionnaire Performance Impaired, mean peak effect” value [6] was 12.9. For the same molecule, the “Drug-Effect Questionnaire Performance Improved, mean peak effect” value [6] was 9.5, the “Drug-Effect Questionnaire Restless” value [6] was 11.1 and the “Drug-Effect Questionnaire Rush” value [6] was 36.1. The “Drug-Effect Questionnaire Shaky-Jittery” value [6] was 22.1, the “Drug-Effect Questionnaire Sluggish-Fatigued-Lazy, mean peak effect” value [6] was 22.0 and the “Drug-Effect Questionnaire Stimulated” value [6] was 31.1. The “Drug-Effect Questionnaire Talkative-Friendly, mean peak effect” value [6] was 16.1, the “Drug-Effect Questionnaire Willing to Pay For, mean peak effect” value [6] was 21.0 and the “Drug-Effect Questionnaire Willing to Take Again, mean peak effect” value [6] was 33.6.
